Test results taken from patent US20210221785A1, “AMINO-PYRIMIDONYL DERIVATIVES, A PROCESS FOR THEIR PREPARATION AND PHARMACEUTICAL COMPOSITIONS CONTAINING THEM” (LES LABORATOIRES SERVIER, priority 2018, published 2021).

What was measured:
[1] = target: T1, His-His-USP7 (aa208-560, |C315A|) (Homo sapiens, UniProt Q93009, C315A); assay: Evaluation of the inhibition of USP7 by the Fluorescence Intensity (FLINT) readings; assay type: biochemical; settings: 0.25 nM His-His-USP7, compound incubated 60 minutes at 30° C., 500 nM Ubiquitin-Rhodamine-110 substrate; 50% reduction in kinetic rate
T1 construct: His-His-USP7 (aa208-560, |C315A|); His-His (N)
T1 sequence (Q93009 208-560 C315A): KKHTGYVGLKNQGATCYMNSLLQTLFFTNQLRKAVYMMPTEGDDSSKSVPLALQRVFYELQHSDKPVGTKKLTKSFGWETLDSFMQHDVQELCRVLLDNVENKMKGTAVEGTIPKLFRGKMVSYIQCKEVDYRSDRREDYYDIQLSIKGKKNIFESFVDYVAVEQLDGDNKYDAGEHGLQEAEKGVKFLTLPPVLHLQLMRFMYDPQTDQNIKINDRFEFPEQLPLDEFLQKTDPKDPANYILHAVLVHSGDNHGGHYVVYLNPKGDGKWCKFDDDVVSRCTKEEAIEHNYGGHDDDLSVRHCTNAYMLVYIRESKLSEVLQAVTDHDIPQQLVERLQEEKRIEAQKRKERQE
How it was run: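 IC50 reflects 50% reduction in kinetic rate of rhodamine-110 release (Ex485/Em535, reads every 3 min over 21 min), normalised to DMSO and no-enzyme controls, from an 11-point 4-parameter fit. Substrate is 500 nM Ub-Rh110, added after 60 min, 30 °C preincubation of compound with 0.25 nM USP7 aa208–560 C315A. Buffer is Bicine pH 8.0 with 10% DMSO.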

[2] = system: Z138 mantle cell lymphoma tumour cell lines; assay: In vitro cytotoxicity, MTT assay; assay type: cell-based; settings: Z138 cells exposed to the test compounds for 96 hours, cell viability vs DMSO treated cells
How it was run: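 Z138 cells exposed to compounds for 96 hours, then MTT added for 4 hours. Viable cells quantified from formazan absorbance at 540 nm.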

SMILES	IC50 [1]	IC50 ([2]; Homo sapiens, Z-138, 96 h)	IC50 [2]
NCc1ccc(Oc2ncn(C[C@@]3(O)CCN(C(=O)[C@@H]4CCC(F)(F)C[C@H]4c4ccccc4)CC3(F)F)c(=O)c2N)cc1 [Example 90, 5-amino-6-[4-(aminomethyl)phenoxy]-3-({(4S)-1-[(1R,2R)-4,4-difluoro-2-phenylcyclohexane-1-carbonyl]-3,3-difluoro-4-hydroxypiperidin-4-yl}methyl)pyrimidin-4(3H)-one]	0.0039 µM	0.16 µM	
Nc1c(Oc2cccc(O)c2)ncn(C[C@@]2(O)CCN(C(=O)[C@@H]3CCC(F)(F)C[C@H]3c3ccccc3)CC2(F)F)c1=O [Example 104, 5-amino-3-({(4S)-1-[(1R,2R)-4,4-difluoro-2-phenylcyclohexane-1-carbonyl]-3,3-difluoro-4-hydroxypiperidin-4-yl}methyl)-6-(3-hydroxyphenoxy)pyrimidin-4(3H)-one]	0.041 µM	0.014 µM	
CN(C)Cc1ccc(Oc2ncn(CC3(O)CCN(C(=O)[C@@H]4CCC(F)(F)C[C@H]4c4ccccc4)CC3)c(=O)c2N)cc1 [Example 108, 5-amino-3-({1-[(1R,2R)-4,4-difluoro-2-phenylcyclohexane-1-carbonyl]-4-hydroxypiperidin-4-yl}methyl)-6-{4-[(dimethylamino)methyl]phenoxy}pyrimidin-4(3H)-one]	0.0639 µM	0.654 µM	
Nc1c(Oc2ccc(F)c(O)c2)ncn(C[C@@]2(O)CCN(C(=O)[C@@H]3CCC(F)(F)C[C@H]3c3ccccc3)CC2(F)F)c1=O [Example 109, 5-amino-3-({(4S)-1-[(1R,2R)-4,4-fluoro-2-phenylcyclohexane-1-carbonyl]-3,3-difluoro-4-hydroxypiperidin-4-yl}methyl)-6-(4-fluoro-3-hydroxyphenoxy)pyrimidin-4(3H)-one]	0.0403 µM		0.0155 µM
Nc1c(Oc2ccc(Cl)c(O)c2)ncn(CC2(O)CCN(C(=O)[C@@H]3CCC(F)(F)C[C@H]3c3ccccc3)CC2)c1=O [Example 110, 5-amino-6-(4-chloro-3-hydroxyphenoxy)-3({1-[(1R,2R)-4,4-difluoro-2-phenylcyclohexane-1-carbonyl]-4-hydroxypiperidin-4-yl}methyl)pyrimidin-4(3H)-one]	0.028 µM	0.0254 µM	
Cc1ccc(Oc2ncn(CC3(O)CCN(C(=O)[C@@H]4CCC(F)(F)C[C@H]4c4ccccc4)CC3)c(=O)c2N)cc1O [Example 111, 5-amino-3-({1-[(1R,2R)-4,4-difluoro-2-phenylcyclohexane-1-carbonyl]-4-hydroxypiperidin-4-yl}methyl)-6-(3-hydroxy-4-methylphenoxy)pyrimidin-4(3H)-one]	0.0221 µM	0.0588 µM	
Nc1c(Oc2cccc(C3CNCCO3)c2)ncn(CC2(O)CCN(C(=O)[C@@H]3CCC(F)(F)C[C@H]3c3ccccc3)CC2)c1=O (stereo partly drawn) [Example 115, 5-amino-3-([1-[(1R,2R)-4,4-difluoro-2-phenylcyclohexane-1-carbonyl]-4-hydroxypiperidin-4-yl]methyl)-6-[3-(morpholin-2-yl)phenoxy]pyrimidin-4(3H)-one]	0.0372 µM	0.85 µM	
N#CCc1ccc(Oc2ncn(CC3(O)CCN(C(=O)[C@@H]4CCC(F)(F)C[C@H]4c4ccccc4)CC3)c(=O)c2N)cc1 [Example 117, (4-{[5-amino-1-({1-[(1R,2R)-4,4-difluoro-2-phenylcyclohexane-1-carbonyl]-4-hydroxypiperidin-4-yl}methyl)-6-oxo-1,6-dihydropyrimidin-4-yl]oxy}phenyl)acetonitrile]	0.0822 µM	0.617 µM	
Nc1c(Oc2ccc(F)c(CO)c2)ncn(CC2(O)CCN(C(=O)[C@@H]3CCC(F)(F)C[C@H]3c3ccccc3)CC2)c1=O [Example 118, 5-amino-3-({1-[(1R,2R)-4,4-difluoro-2-phenylcyclohexane-1-carbonyl]-4-hydroxypiperidin-4-yl}methyl)-6-[4-fluoro-3-(hydroxymethyl)phenoxy]pyrimidin-4(3H)-one]	0.0331 µM	0.0413 µM	
Nc1cc(Oc2ncn(CC3(O)CCN(C(=O)[C@@H]4CCC(F)(F)C[C@H]4c4ccccc4)CC3)c(=O)c2N)ccc1F [Example 119, 5-amino-6-(3-amino-4-fluorophenoxy)-3-({1-[(1R,2R)-4,4-difluoro-2-phenylcyclohexane-1-carbonyl]-4-hydroxypiperidin-4-yl}methyl)pyrimidin-4(3H)-one]	0.038 µM	0.0613 µM	
CC(C)c1ccc(Oc2ncn(CC3(O)CCN(C(=O)[C@@H]4CCC(F)(F)C[C@H]4c4ccccc4)CC3)c(=O)c2N)cc1O [Example 120, 5-amino-3-({1-[(1R,2R)-4,4-difluoro-2-phenylcyclohexane-1-carbonyl]-4-hydroxypiperidin-4-yl}methyl)-6-[3-hydroxy-4-(propan-2-yl)phenoxy]pyrimidin-4(3H)-one]	0.0163 µM	0.103 µM	
Nc1c(Oc2ccc(C3CCCCN3)cc2)ncn(CC2(O)CCN(C(=O)[C@@H]3CCC(F)(F)C[C@H]3c3ccccc3)CC2)c1=O (stereo partly drawn) [Example 121, 5-amino-3-({1-[(1R,2R)-4,4-difluoro-2-phenylcyclohexane-1-carbonyl]-4-hydroxypiperidin-4-yl}methyl)-6-[4-(piperidin-2-yl)phenoxy]pyrimidin-4(3H)-one]	0.00308 µM	0.546 µM	
C#C[C@]1(F)CC[C@@H](C(=O)N2CCC(O)(Cn3cnc(Oc4ccc(F)cc4)c(N)c3=O)CC2)[C@H](c2ccccc2)C1 [Example 122, 5-amino-3-({1-[(1R,2R,4S)-4-ethynyl-4-fluoro-2-phenylcyclohexanecarbonyl]-4-hydroxypiperidin-4-yl}methyl)-6-(4-fluorophenoxy)-3,4-dihydropyrimidin-4-one]	0.0263 µM	0.0374 µM	
C#C[C@@]1(F)CC[C@@H](C(=O)N2CCC(O)(Cn3cnc(Oc4ccc(F)cc4)c(N)c3=O)CC2)[C@H](c2ccccc2)C1 [Example 123, 5-amino-3-({1-[(1R,2R,4R)-4-ethynyl-4-fluoro-2-phenylcyclohexanecarbonyl]-4-hydroxypiperidin-4-yl}methyl)-6-(4-fluorophenoxy)-3,4-dihydropyrimidin-4-one]	0.0354 µM	0.0466 µM	
Nc1c(Oc2ccc(F)cc2)ncn(CC2(O)CCN(C(=O)[C@@H]3CC[C@](F)(C#Cc4cccnc4)C[C@H]3c3ccccc3)CC2)c1=O [Example 130, 5-amino-3-[(1-{[(1R,2R,4R)-4-fluoro-2-phenyl-4-[2-(pyridin-3-yl)ethynyl]cyclohexyl]carbonyl}-4-hydroxypiperidin-4-yl)methyl]-6-(4-fluorophenoxy)pyrimidin-4-one]	0.017 µM	0.0144 µM	
Nc1c(Oc2ccc(F)cc2)ncn(CC2(O)CCN(C(=O)[C@@H]3CC[C@](F)(C#Cc4ccccn4)C[C@H]3c3ccccc3)CC2)c1=O [Example 132, 5-amino-3-[(1-{[(1R,2R4R)-4-fluoro-2-phenyl-4-[2-(pyridin-2-yl)ethynyl]cyclohexyl]carbonyl}-4-hydroxypiperidin-4-yl)methyl]-6-(4-fluorophenoxy)pyrimidin-4-one]	0.00329 µM	0.00214 µM	
Nc1c(Oc2ccc(F)cc2)ncn(CC2(O)CCN(C(=O)[C@@H]3CC[C@](F)(C#Cc4ccc(F)cn4)C[C@H]3c3ccccc3)CC2)c1=O [Example 133, 5-amino-3-[(1-{[(1R,2R4R)-4-fluoro-4-[2-(5-fluoropyridin-2-yl)ethynyl]-2-phenylcyclohexyl]carbonyl}-4-hydroxypiperidin-4-yl)methyl]-6-(4-fluorophenoxy)pyrimidin-4-one]	0.0315 µM	0.0187 µM	
Nc1c(Oc2ccc(F)cc2)ncn(CC2(O)CCN(C(=O)[C@@H]3CC[C@@](F)(C#Cc4ccc(F)cn4)C[C@H]3c3ccccc3)CC2)c1=O [Example 134, 5-amino-3-[(1-{[(1R,2R,4S)-4-fluoro-4-[2-(5-fluoropyridin-2-yl)ethynyl]-2-phenylcyclohexyl]carbonyl}-4-hydroxypiperidin-4-yl)methyl]-6-(4-fluorophenoxy)pyrimidin-4-one]	0.0807 µM	0.0309 µM	
Nc1c(Oc2ccc(F)cc2)ncn(CC2(O)CCN(C(=O)[C@@H]3CC[C@@](F)(C#Cc4cnccn4)C[C@H]3c3ccccc3)CC2)c1=O [Example 137, 5-amino-3-({1-[(1R42R,4S)-4-fluoro-2-phenyl-4-[2-(pyrazin-2-yl)ethynyl]cyclohexanecarbonyl]-4-hydroxypiperidin-4-yl}methyl)-6-(4-fluorophenoxy)-3,4-dihydropyrimidin-4-one]	0.0627 µM	0.0246 µM	
Nc1c(Oc2ccc(F)cc2)ncn(CC2(O)CCN(C(=O)[C@@H]3CC[C@](F)(C#Cc4cnccn4)C[C@H]3c3ccccc3)CC2)c1=O [Example 138, 5-amino-3-({1-[(1R,2R,4R)-4-fluoro-2-phenyl-4-[2-(pyrazin-2-yl)ethynyl]cyclohexanecarbonyl]-4-hydroxypiperidin-4-yl}methyl)-6-(4-fluorophenoxy)-3,4-dihydropyrimidin-4-one]	0.0203 µM	0.00657 µM	
CO[C@]1(C#Cc2cncnc2)CC[C@@H](C(=O)N2CCC(O)(Cn3cnc(Oc4ccc(F)cc4)c(N)c3=O)CC2)[C@H](c2ccccc2)C1 [Example 139, 5-amino-6-(4-fluorophenoxy)-3-[(4-hydroxy-1{[(1R, 2R,4R)-4-methoxy-2-phenyl-4-[2-(pyrimidin-5-yl)ethynyl]cyclohexyl]carbonyl}piperidin-4-yl)methyl]pyrimidin-4-one]	0.0497 µM	0.0291 µM	
